Results from patent EP3782997A1, “FUSED PYRIMIDINE COMPOUNDS AND PHARMACEUTICAL COMPOSITIONS THEREOF FOR THE TREATMENT OF FIBROTIC DISEASES” (Galapagos N.V., priority 2019, dated 2021).

Biological target: hENPP2 (Homo sapiens, UniProt Q13822)
Experiment: Human ENPP2 (hENPP2) biochemical assay using LPC as substrate
Conditions: 150 µM LPC (palmitoyl 16:0), 37°C for 30 min
How it was run: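 IC50 came from compound series (top 50 µM, 1/3 steps) incubated 30 min at 37°C with 1 or 3 µg/mL final enzyme and palmitoyl LPC added at 150 µM, pH 8.5 Tris buffer with Ca2+. Choline output measured as quinoneimine dye at 555 nm via coupled oxidase/HRP/TOOS detection.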

SMILES | IC50 [nM]
COc1cc(C)cc(Nc2ncc3c(n2)CN([C@H]2CCN(C(=O)c4ccnc(NS(C)(=O)=O)c4)[C@H](C)C2)C3)c1 [compound 191, N-[4-[(2R,4S)-4-[2-(3-methoxy-5-methyl-anilino)-5,7-dihydropyrrolo[3,4-d]pyrimidin-6-yl]-2-methyl-piperidine-1-carbonyl]-2-pyridyl]methanesulfonamide] | 100 to 500
COc1cccc(Nc2ncc3c(n2)CN([C@H]2CCN(C(=O)c4ccnc(NS(C)(=O)=O)c4)[C@H](C)C2)C3)c1 [compound 193, N-[4-[(2R,4S)-4-[2-(3-methoxyanilino)-5,7-dihydropyrrolo[3,4-d]pyrimidin-6-yl]-2-methyl-piperidine-1-carbonyl]-2-pyridyl]methanesulfonamide] | > 1000
C[C@@H]1C[C@H](N2Cc3cnc(Nc4ccc(S(F)(F)(F)(F)F)cc4)nc3C2)CCN1C(=O)c1cc2nn[nH]c2cc1F [compound 195, (6-fluoro-1H-benzotriazol-5-yl)-[(2R,4R)-2-methyl-4-[2-[4-(pentafluoro-λ^6-sulfanyl)anilino]-5,7-dihydropyrrolo[3,4-d]pyrimidin-6-yl]-1-piperidyl]methanone] | 0.01 to 100
COc1cc(F)cc(Nc2ncc3c(n2)CN([C@@H]2CCN(C(=O)c4cc5nn[nH]c5cc4F)[C@H](C)C2)C3)c1 [compound 197, (6-fluoro-1H-benzotriazol-5-yl)-[(2R,4R)-4-[2-(3-fluoro-5-methoxy-anilino)-5,7-dihydropyrrolo[3,4-d]pyrimidin-6-yl]-2-methyl-1-piperidyl] methanone] | 0.01 to 100
Cc1cc(C)cc(Nc2ncc3c(n2)CN([C@@H]2CCN(C(=O)c4ccnc(N)c4)[C@H](C)C2)C3)c1 [compound 198, (2-amino-4-pyridyl)-[(2R,4R)-4-[2-(3,5-dimethylanilino)-5,7-dihydropyrrolo[3,4-d]pyrimidin-6-yl]-2-methyl-1-piperidyl]methanone] | > 1000

Second part, the molecule after the results:

IC50 [nM] | SMILES
0.01 to 100 | COc1cccc(Nc2ncc3c(n2)CN([C@@H]2CCN(C(=O)c4ccnc(NS(C)(=O)=O)c4)[C@H](C)C2)C3)c1 [compound 189, N-[4-[(2R,4R)-4-[2-(3-methoxyanilino)-5,7-dihydropyrrolo[3,4-d]pyrimidin-6-yl]-2-methyl-piperidine-1-carbonyl]-2-pyridyl]methanesulfonamide]
0.01 to 100 | C[C@@H]1C[C@@H](N2Cc3cnc(Nc4ccc(C(F)(F)F)cc4)nc3C2)CCN1C(=O)c1ccnc(NS(C)(=O)=O)c1 [compound 190, N-[4-[(2R,4S)-2-methyl-4-[2-[4-(trifluoromethyl)anilino]-5,7-dihydropyrrolo[3,4-d]pyrimidin-6-yl]piperidine-1-carbonyl]-2-pyridyl]methanesulfonamide]
> 1000 | C[C@@H]1C[C@@H](N2Cc3cnc(Nc4ccc(F)cc4)nc3C2)CCN1C(=O)c1ccnc(NS(C)(=O)=O)c1 [compound 192, N-[4-[(2R,4S)-4-[2-(4-fluoroanilino)-5,7-dihydropyrrolo[3,4-d]pyrimidin-6-yl]-2-methyl-piperidine-1-carbonyl]-2-pyridyl]methanesulfonamide]
> 1000 | Cc1cc(C)cc(Nc2ncc3c(n2)CN(C2(C)CCN(C(=O)c4cc5nn[nH]c5cc4F)CC2)C3)c1 [compound 194, [4-[2-(3,5-dimethylanilino)-5,7-dihydropyrrolo[3,4-d]pyrimidin-6-yl]-4-methyl-1-piperidyl]-(6-fluoro-1H-benzotriazol-5-yl)methanone]
0.01 to 100 | C[C@@H]1C[C@@H](N2Cc3cnc(Nc4ccc(S(F)(F)(F)(F)F)cc4)nc3C2)CCN1C(=O)c1cc2nn[nH]c2cc1F [compound 196, (6-fluoro-1H-benzotriazol-5-yl)-[(2R,4S)-2-methyl-4-[2-[4-(pentafluoro-λ^6-sulfanyl)anilino] -5,7-dihydropyrrolo[3,4-d]pyrimidin-6-yl]-1-piperidyl]methanone]
